Reference: patent publication US12617745B2, “Curcusone diterpenoids and uses thereof” (Purdue Research Foundation, priority 2020, dated 2026)
Read-outs that look alike come from different tables or passages of the source. Each block holds one compound with its values, some of them ahead of it. Peptide text beside a SMILES is read from it. * marks the point of attachment. Cbz = O=C(OCc1ccccc1)*

What was measured:
MCF-7 cells = assay: Cytotoxicity in MCF-7 cells, WST-1 assay; type: cell-based, human; settings: for EC50 values against MCF-7 cells, in words / EC50 / IC50 / cytotoxicity / anticancer activity in MCF-7 cells, comparative statement: 24 h compound treatment, WST-1; for EC50: read-out: EC50, viability of MCF-7 cells; for IC50: read-out: IC50 value / antiproliferation activity in MCF-7 cells
Description: The absorbance at 420 nm and 630 nm was then acquired using a BioTek Synergy H1 microplate reader. Cell viability results were plotted in GraphPad Prism 7.

BRAT1 [1] = molecular target: T1, BRAT1 (Homo sapiens, UniProt Q6PJG6); assay: In situ dose response via competitive pulldown assay with probe 37; type: cell-based
T1 sequence (Q6PJG6 1-821): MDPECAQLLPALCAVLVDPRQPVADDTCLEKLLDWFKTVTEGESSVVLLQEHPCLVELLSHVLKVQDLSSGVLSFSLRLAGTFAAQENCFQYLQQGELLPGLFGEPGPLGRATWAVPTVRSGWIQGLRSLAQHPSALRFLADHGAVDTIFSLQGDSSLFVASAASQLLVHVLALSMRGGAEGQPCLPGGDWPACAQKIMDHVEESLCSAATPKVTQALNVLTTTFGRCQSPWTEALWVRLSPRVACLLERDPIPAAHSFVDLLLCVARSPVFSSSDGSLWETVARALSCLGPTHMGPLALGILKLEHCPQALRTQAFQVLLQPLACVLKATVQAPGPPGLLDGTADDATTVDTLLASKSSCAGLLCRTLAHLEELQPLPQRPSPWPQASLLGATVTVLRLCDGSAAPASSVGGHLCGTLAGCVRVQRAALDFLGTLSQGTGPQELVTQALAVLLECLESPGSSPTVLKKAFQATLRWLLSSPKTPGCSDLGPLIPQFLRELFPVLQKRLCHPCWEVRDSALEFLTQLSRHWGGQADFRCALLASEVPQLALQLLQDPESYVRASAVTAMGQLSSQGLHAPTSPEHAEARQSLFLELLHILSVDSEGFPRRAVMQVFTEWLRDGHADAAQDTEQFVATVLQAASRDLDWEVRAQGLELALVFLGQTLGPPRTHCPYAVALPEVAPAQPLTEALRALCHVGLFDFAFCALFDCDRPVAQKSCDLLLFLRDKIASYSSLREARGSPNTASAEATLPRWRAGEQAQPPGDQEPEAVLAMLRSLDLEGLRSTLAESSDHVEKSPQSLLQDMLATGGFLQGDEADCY
Experimental: HeLa (2.0e6) cells were seeded in 60 mm dishes. […] The lysates were prepared and quantified as described above. Lysates (2 mg/mL, 140 μL) was treated with 10 μM 37 (50× stock in DMSO) for one hour at r.t. and then subjected to click chemistry with biotin azide as described above for one hour at r.t. Proteins were precipitated, re-solubilized in 0.2% SDS in PBS, enriched with 50 μL streptavidin beads, and washed as described above. Proteins were eluted using 30 μL SDS-PAGE reducing loading buffer (4×), subjected to 10 min heat denaturation (95° C.), separated using a 11% SDS-PAGE gel, and visualized via Western blotting as described above. Images were quantified with ImageJ. EC50 and Kitz-Wilson binding constants were calculated using GraphPad Prism 7.

FLAG-BRAT1 = molecular target: T2, FLAG-BRAT1 (Homo sapiens, UniProt Q6PJG6); assay: Thermal shift assay of FLAG-BRAT1 via Western blotting; type: binding; settings: HEK-293T lysate, 30 μM, 34° C. to 61° C.
T2 construct: expressed in transfected cells; host or cells: HEK-293T, transient transfection, lysate
T2 sequence (Q6PJG6 1-821): T1 sequence (Q6PJG6 1-821)
Experimental: HEK-293T (8e6) cells were seeded in a 10 cm dish in DMEM without pen-strep. After incubating overnight, 24 μg of FLAG-BRAT1 pExp plasmid was incubated for 15 min at r.t. with 96 μL of PEI MAX™ 40K (Polysciences 24765-1) in final volume of 2 mL Opti-MEM (Gibco 11058021). The mixture was then carefully added to the cells. After 24 hours, the cells were carefully washed twice with PBS, and the lysate was prepared by sonication in PBS as described above.
The supernatant was carefully isolated. SDS-PAGE reducing loading buffer (4×) was added to the isolated supernatant, and proteins were transferred to a PVDF (0.2 μm) membrane using wet transfer with tris-glycine transfer buffer (20% methanol) for one hour at 350 mA. Membrane was blocked with 5% milk in tris-buffered saline with 0.1% Tween 20 (TBST) for 30-60 minutes at r.t. and then incubated with primary rabbit polyclonal BRAT1 antibody (Novus NB100-2256, 1:2000 in 5% milk in TBST) overnight shaking at 4° C. Membrane was washed three times for five min with TBST and incubated with anti-rabbit Alexa Fluor 647 (Jackson ImmunoResearch Inc., 1:500 in 5% milk in TBST) for one hour at r.t. Membrane was then washed 3× with TBST and visualized with an Azure Biosystems Sapphire Biomolecular Imager. […]

BRAT1 [2] = molecular target: T1, BRAT1; assay: In situ competitive MS-based target identification; type: cell-based; settings: MCF-7 cells, 30 μM 1d 4 hours, 10 μM 37
Experimental: MCF-7 (8e6) cells were seeded in 10 cm Petri dishes and incubated overnight. […] Lysate was prepared as described above. Lysate (2 mg/mL, 0.75 mL) was treated with 10 μM 37 (50× stock in DMSO) for one hour at r.t. and then subjected to click chemistry. […] (Click Chemistry Tools, 50 μM, 50× stock in DMSO), tris(2-carboxyethyl)phosphine hydrochloride (TCEP) (1 mM, Sigma-Aldrich C4706-2G, 50× fresh stock in water), tris[(1-benzyl-1H1,2,3-triazol-4-yl)methyl]amine (TBTA) (100 μM, Click Chemistry Tools, 16× stock in DMSO:tBuOH 1:4), and copper(II) sulfate (Sigma-Aldrich, 1 mM, 50× stock in water) were added to the proteome and left to react for one hour at r.t. […] Samples were analyzed by LC-MS/MS (see below) and the MS data was processed with MaxQuant (see below).
Peptides were resuspended in water with 0.1% formic acid (FA) and analyzed using EASY-nLC 1200 nano-UHPLC coupled to Q Exactive HF-X Quadrupole-Orbitrap mass spectrometer (Thermo Scientific). […]
The MS data was analyzed with MaxQuant9 (V1.6.1.0)^7 and searched against the human proteome (Uniprot) and a common list of contaminants (included in MaxQuant). […] The minimum peptide length was set to 6 amino acids and peptide re-quantification, label-free quantification (MaxLFQ) and “match between runs” were enabled. […]

HeLa cells = assay: Global proteomics profiling using LC-MS/MS; type: cell-based, human; settings: 3 μM, 24 h, among 3347 quantified proteins
[3] = tested on: HeLa, MCF-7 and MDA-MB-231 cells; assay: Transwell migration assay; type: cell-based, human; settings: 1 μM, 24 hours, all cell lines
BRAT1 [4] = molecular target: T1, BRAT1; assay: In situ competitive pulldown assay via Western blotting; type: cell-based; parameters: endogenous in cells; host or cells: HeLa, MCF-7, MDA-MB-231 (live cells or HeLa lysate)
BRAT1 [5] = molecular target: T1, BRAT1; assay: Competitive BRAT1 pulldown with iodoacetamide (binding reversibility); parameters: endogenous in cells; host or cells: HeLa (HeLa lysate); settings: HeLa lysate, IAA 30 mM 1 h pre- or posttreatment, 37 10 μM
Experimental: To evaluate the binding reversibility, we performed a competitive BRAT1 pulldown assay with the irreversible cysteine-reactive probe iodoacetamide (IAA). HeLa lysate was treated with 37 (10 μM) for 1 h with either pre- or posttreatment with IAA (30 mM) for 1 h followed by enrichment and Western blot analysis as described above.

BRAT1 [6] = molecular target: T1, BRAT1; assay: BRAT1 protein level after 1d treatment (global proteomics, Western blot); type: cell-based; parameters: endogenous in cells; host or cells: HeLa, MCF-7, MDA-MB-231 (live cells or HeLa lysate); settings: added for the final 4 hours of 1d treatment

Compound: C=C(C)C1CCC(=C)C2C3=C(C[C@H](C)C3=O)C(=O)C(C)=C[C@@H]12 (single isomer, unassigned; (-)) [1b, (−)-Curcusone B]
EC50 values against MCF-7 cells, in words (MCF-7 cells): micromolar
cytotoxicity value of synthetic sample versus naturally isolated counterpart (MCF-7 cells; MCF-7 cells): virtually identical

EC50 (BRAT1 [1]; in situ treatment of live HeLa cells, read-out: EC50, competition of BRAT1 enrichment by 37): 2.7 µM
concentration at 50% fractional occupancy (f occ. (50)) of BRAT1 (BRAT1 [1]; live HeLa cells, 4 h): 2.7 µM
thermal stability of FLAG-BRAT1 (FLAG-BRAT1): thermal destabilization
protein competed from probe 37 enrichment (BRAT1 [2]): best competed target was BRAT1
competition of BRAT1 enrichment by 37 (BRAT1 [4]; HeLa and MDA-MB-231 cells): competed the enrichment of BRAT1
competition of BRAT1 enrichment by 37 (BRAT1 [4]; MCF-7 cells, 4 hours): competed
Compound: C=C(C)C1CCC(=C)C2C3=C(CC(C)(O)C3=O)C(=O)C(C)=CC12 (single isomer, unassigned; (-)) [1d, (−)-Curcusone D]
EC50 values against MCF-7 cells, in words (MCF-7 cells): micromolar
EC50 (MCF-7 cells; Homo sapiens, MCF7): 13.8 µM
number of down-regulated proteins (HeLa cells): 42
number of up-regulated proteins (HeLa cells): 36
reduction of cell migration [3]: ~4 fold

Compound: NC(=O)CI [IAA, iodoacetamide]
competition of BRAT1 enrichment by 37 (BRAT1 [5]): competed BRAT1 enrichment by 37

Compound: CC(C)C[C@@H](C=O)NC(=O)[C@H](CC(C)C)NC(=O)[C@H](CC(C)C)NC(=O)OCc1ccccc1 [MG132] (Cbz-Leu-Leu-Leu-aldehyde)
BRAT1 protein levels with proteasome inhibitor (BRAT1 [6]): recovered BRAT1 protein levels

Compound: C=C(C)[C@H]1CCC(=C)[C@@H]2[C@@H]1C=C(C)C(=O)[C@]21CC=C(C)C1=O [compound 3, (+)-Spirocurcasone]
IC50 (MCF-7 cells): 62.7 µM

Compound: (−)-dimericursone A [2a]
cytotoxicity / anticancer activity in MCF-7 cells, comparative statement (MCF-7 cells): no toxicity
EC50 (MCF-7 cells): > 100 µM

Compound: (−)-pyracurcasone [compound 33]
cytotoxicity / anticancer activity in MCF-7 cells, comparative statement (MCF-7 cells): slightly better antiproliferation activity
IC50 (MCF-7 cells): 8 µM
